Experiments:
[1] = system: Bcl-XL mRNA; experiment: RT-PCR of Bcl-XL mRNA in SKOV3 cells after siRNA transfection; type: cell-based, human; conditions: 72 h after transfection, FIG. 1A
Method: (§1) The siRNA duplexes were transfected according to the recommended procedure by using the Oligofectamine Reagent and Opti-MEM medium (INVITROGEN LIFE TECHNOLOGIES). 30-40% confluent cells were transfected in 25 cm^2 flasks with different concentrations of siXL1, siRNA Mcl-1 or siRNA control and incubated at 37° C., 5% CO2 for 4 hours. Next, 20% fetal bovin serum was added to reach a final concentration of 10% foetal bovin serum in the 25 cm^2 flask.
One μg of total RNA, extracted by RNAeasy kit (QIAGEN), was reverse-transcripted with 200 units Omniscript reverse transcriptase (QIAGEN) in first strand reaction conditions recommended by the manufacturer. The targeted cDNA were amplified using the following pair of primers, Bcl-XL/S forward 5′-[…]-3′ (SEQ ID NO: 11) and Bcl-XL/S reverse 5′-gtagagtggatggtcagtg-3′ (SEQ ID NO:12; Bargou et al., Int. J. Cancer, 1995, 16, 854-859), and amplified under the following cycling conditions: pre-incubation 94° C. for 5 min then 94° C. for 40 sec, 58° C. for 60 sec and 72° C. for 40 sec for 30 cycles, post-incubation 72° C. for 3 min within a Mastercycleur Gradient (EPPENDORF). The use of these primers allows the migration of Bcl-Xs and Bcl-XL PCR products as two distinct bands of respectively 576 and 765 bp.

[2] = system: SKOV3 cells; experiment: Cell mortality, viability, growth and cell cycle of SKOV3 cells (morphology, trypan blue exclusion, FACS of DNA content); type: cell-based, human
Method: Exponentially growing cells were exposed to CDDP for 2 hours at 37° C., in serum free medium. After exposure to the drug, the cell layers were rinsed and incubated in complete growth medium.
as §1
After treatment, detached cells were collected separately and adherent cells were dissociated by trypsin/EDTA. Adherent and detached cells were then pooled and centrifuged at 1500×g for 5 min before being fixed in 70% ethanol. The cells were then collected on a polylysine-coated glass slide by cytocentrifugation, before a 30 min room temperature incubation in a 1 μg/ml DAPI aqueous solution (BOEHRINGER MANNHEIM). Slides were thereafter extensively washed in distilled water and mounted in Mowiol (CALBIO-CHEM).
After treatment, detached cells were collected separately. Adherent cells were then harvested by trypsin/EDTA dissociation. Adherent and detached cells were then pooled and washed in PBS before being fixed in 70% ethanol and stored at −20° C. until analysis. Before flow cytometry analysis, the cells were washed in PBS and incubated for 30 min at room temperature in PBS in order to allow the release of low molecular weight (m.w.) DNA, characteristic of apoptotic cells. After a centrifugation at 4000 g for 10 min, the cell pellets were resuspended and stained with propidium iodide (PI) using the DNA Prep Coulter Reagent Kit (BECKMAN-COULTER) at a final concentration of 10^6 cells/ml.
Samples were analyzed using an EPICS XL flow cytometer (BECKMAN COULTER) equipped with an argon laser at 15 mW. PI-stained cells were analyzed using a 488 mn excitation. A 620 nm band pass filter was put on the red fluorescence of PI. Computerized gating was applied on the side and forward scatter to exclude very small debris and on pulse width and integral peak of red fluorescence to eliminate aggregates. All samples were analyzed at a flow rate lower than 100 events per second and with a sheath pressure of 30 psi.

[3] = system: Mcl-1 protein; experiment: Western blot of Mcl-1 protein expression in SKOV3 cells; type: cell-based, human; conditions: FIG. 11B
Method: as §1
Cells were rinsed with ice cold PBS and lysed in 150 mM NaCl, 50 mM Tris-HCl pH 8, 1% Triton X100, 4 mM PMSF, 2 mM Aprotinin, 5 mM EDTA, 10 mM NaF, 10 mM NaPPi, 1 mM Na3VO4 for 30 min on ice. Lysates were clarified by centrifugation at 10000 g for 10 min at 4° C. and protein concentrations were determined using the Bradford assay (BIO-RAD). Equal amounts of total cellular protein (20 μg) were resolved in a Bis-tris-HCL buffered (pH 6.4) 4-12% polyacrylamide gel (NuPAGE® Novex® 4-12% Bis-tris gel, INVITROGEN) for 35 min at 200V and electrophoretically transferred on a PVDF membrane (MILLIPORE) for 75 min at 30V. The membrane was blocked for 1 hour at room temperature in T-TBS (132 mM NaCl, 20 mM Tris-HCl pH 7.6, 0.05% Tween 20) supplemented with 5% non-fat dry milk. […] After 3 washes with T-TBS and one with TBS, the immunoreactivity was detected by enhanced chemiluminescence (ECL kit, AMERSHAM).

[4] = system: Bcl-XL protein; experiment: Immunohistochemical analysis of Bcl-XL protein in SKOV3 peritoneal tumour nodes of mice; type: in vivo, human; conditions: naked siXL1 5, 25 or 100 μg/kg, 3 days after injection
Method: […] […] The solution was quickly homogenized and left for 15 min at room temperature. It was injected intraperitoneally in mice as a 0.5 ml 5% glucose solution.
[…] Mice were killed 3 days after transfection and each organ (kidney, liver, spleen, pancreas, ovary, peritoneum, diaphragm, lung, heart and skeletal muscle) was washed with saline solution. Parts of each organs were either frozen in liquid nitrogen and stored at −80° C. for RT-PCR and western blot analysis, or formalin-fixed and paraffin-embedded for histological examination and immunohistochemical analysis.
Immunohistochemical staining was performed on paraffin-embedded material. To perform immunostaining, 4 μm-thick sections were dewaxed, rehydrated and treated 30 minutes by high-temperature-heating antigen retrieval technique in citrate buffer 0.1M pH6 to unmask epitopes. Sections were incubated 1 hour at room temperature with polyclonal antibody anti-Bcl-XL/S (S18) obtained from Santa Cruz (TEBU-BIO) and diluted 1:50. After washes, slides were incubated with Rabbit IgG Vectastain ABC Kit (VECTOR, ABCYS) according to the manufacturer instructions.

siXL1: double-stranded siRNA blocking Bcl-XL expression; sense 5′-auuggugagucggaucgcatt-3′ (SEQ ID NO: 5), anti-sense 5′-ugcgauccgacucaccaautt-3′ (SEQ ID NO: 6) (sense AUUGGUGAGUCGGAUCGCATT; antisense UGCGAUCCGACUCACCAAUTT; chemistry not given here)
Bcl-XL mRNA level (RT-PCR) [1]: greatly reduces
cytotoxic effect on SKOV3 cells ([2]; 50 nM each siRNA, absence of cisplatin, FIG. 12): no cytotoxic effect
cytotoxic effect of each siRNA ([2]; SKOV3 cells, FIGS. 13 and 14): slight cytoxic effect
cell viability (trypan blue exclusion) ([2]; SKOV3 cells, alone 150 nM or in combination 75 nM each, FIGS. 13 and 14): reduction of cell viability
cell death (morphology, FACS analysis of the cell cycle) ([2]; SKOV3 cells, cisplatin 5 or 20 μg/ml, siRNA 150 nM): moderate cell death by apoptosis
dose dependence of extinction of Mcl-1 protein expression [3]: dose-dependent
Bcl-XL labelling intensity in tumour nodes [4]: decreases as the siXL1 dose increases
